Source: US20130338106A1, “COMPOUNDS INHIBITING LEUCINE-RICH REPEAT KINASE ENZYME ACTIVITY” (priority 2011, published 2013)

Key:
Format in all cases: biochemical
PIM1 = molecular target: T1, PIM1 (Homo sapiens, UniProt P11309); test: ProfilerPro Kinase Selectivity, PIM1; settings: tested at 10 uM, read-out: percent inhibition of the kinase activity
T1 construct: purchased Caliper LifeSciences
Procedure: (§1) Kinome selectivity profiling was performed using two example compounds according to the manufacturer's instructions using Caliper LifeSciences' ProfilerPro Kinase Selectivity Assay Kits. Compounds prepared in Examples 1 and 7 were tested at 10 uM and data were recorded using the Caliper LabChip® EZ Reader™. Each compounds' percent inhibition of the kinase activity measured in this manner is reported in the following lists.

MARK4 = molecular target: T2, MARK4 (Homo sapiens, UniProt Q96L34); test: ProfilerPro Kinase Selectivity, MARK4; settings: tested at 10 uM, read-out: percent inhibition of the kinase activity
T2 construct: purchased Caliper LifeSciences
Procedure: as §1

GSK3A = molecular target: T3, GSK3A (Homo sapiens, UniProt P49840); test: ProfilerPro Kinase Selectivity, GSK3A; settings: tested at 10 uM, read-out: percent inhibition of the kinase activity
T3 construct: purchased Caliper LifeSciences
Procedure: as §1

CDK5/P25 = molecular target: T4, CDK5/P25 (Homo sapiens, UniProt Q00535); test: ProfilerPro Kinase Selectivity, CDK5/P25; settings: tested at 10 uM, read-out: percent inhibition of the kinase activity
T4 construct: purchased Caliper LifeSciences
Procedure: as §1

RSK3 = molecular target: T5, RSK3 (Homo sapiens, UniProt Q15349); test: ProfilerPro Kinase Selectivity, RSK3; settings: tested at 10 uM, read-out: percent inhibition of the kinase activity
T5 construct: purchased Caliper LifeSciences
Procedure: as §1

MAPKAPK3 = molecular target: T6, MAPKAPK3 (Homo sapiens, UniProt Q16644); test: ProfilerPro Kinase Selectivity, MAPKAPK3; settings: tested at 10 uM, read-out: percent inhibition of the kinase activity
T6 construct: purchased Caliper LifeSciences
Procedure: as §1

FES = molecular target: T7, FES (Homo sapiens, UniProt P07332); test: ProfilerPro Kinase Selectivity, FES; settings: tested at 10 uM, read-out: percent inhibition of the kinase activity
T7 construct: purchased Caliper LifeSciences
Procedure: as §1

CSNK1A1 = molecular target: T8, CSNK1A1 (Homo sapiens, UniProt P48729); test: ProfilerPro Kinase Selectivity, CSNK1A1; settings: tested at 10 uM, read-out: percent inhibition of the kinase activity
T8 construct: purchased Caliper LifeSciences
Procedure: as §1

[1] = molecular target: T9, LRRK2 G2019S mutant kinase (Homo sapiens, UniProt Q5S007, G2019S); test: LRRK2 G2019S LanthaScreen TR-FRET kinase assay; settings: LRRK2 G2019S GST-tagged protein, 100 μM ATP, LRRKtide substrate; read-out: IC50 (potency)
T9 construct: GST; purchased Invitrogen PV4882
Summary of the method: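 GST-tagged enzyme with 75 nM fluorescein-ERM (LRRKtide) substrate, 100 μM ATP, 2 mM DTT, 1% DMSO final; 1 h at room temperature. Stopped with EDTA and Tb-anti-pERM antibody, 30 min, then TR-FRET read (ex 340, em 520/495 nm); IC50 and maximal inhibition derived.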

TSSK2 = molecular target: T10, TSSK2 (Homo sapiens, UniProt Q96PF2); test: ProfilerPro Kinase Selectivity, TSSK2; settings: tested at 10 uM, read-out: percent inhibition of the kinase activity
T10 construct: purchased Caliper LifeSciences
Procedure: as §1

PRKCB1 = molecular target: T11, PRKCB1 (Homo sapiens, UniProt P05771); test: ProfilerPro Kinase Selectivity, PRKCB1; settings: tested at 10 uM, read-out: percent inhibition of the kinase activity
T11 construct: purchased Caliper LifeSciences
Procedure: as §1

P38A = molecular target: T12, P38A (Homo sapiens, UniProt Q16539); test: ProfilerPro Kinase Selectivity, P38A; settings: tested at 10 uM, read-out: percent inhibition of the kinase activity
T12 construct: purchased Caliper LifeSciences
Procedure: as §1

DDR2 = molecular target: T13, DDR2 (Homo sapiens, UniProt Q16832); test: ProfilerPro Kinase Selectivity, DDR2; settings: tested at 10 uM, read-out: percent inhibition of the kinase activity
T13 construct: purchased Caliper LifeSciences
Procedure: as §1

MARK2 = molecular target: T14, MARK2 (Homo sapiens, UniProt Q7KZI7); test: ProfilerPro Kinase Selectivity, MARK2; settings: tested at 10 uM, read-out: percent inhibition of the kinase activity
T14 construct: purchased Caliper LifeSciences
Procedure: as §1

TXK = molecular target: T15, TXK (Homo sapiens, UniProt P42681); test: ProfilerPro Kinase Selectivity, TXK; settings: tested at 10 uM, read-out: percent inhibition of the kinase activity
T15 construct: purchased Caliper LifeSciences
Procedure: as §1

PRKCZ = molecular target: T16, PRKCZ (Homo sapiens, UniProt Q05513); test: ProfilerPro Kinase Selectivity, PRKCZ; settings: tested at 10 uM, read-out: percent inhibition of the kinase activity
T16 construct: purchased Caliper LifeSciences
Procedure: as §1

AURA = molecular target: T17, AURA (Homo sapiens, UniProt O14965); test: ProfilerPro Kinase Selectivity, AURA; settings: tested at 10 uM, read-out: percent inhibition of the kinase activity
T17 construct: purchased Caliper LifeSciences
Procedure: as §1

AKT1 = molecular target: T18, AKT1 (Homo sapiens, UniProt P31749); test: ProfilerPro Kinase Selectivity, AKT1; settings: tested at 10 uM, read-out: percent inhibition of the kinase activity
T18 construct: purchased Caliper LifeSciences
Procedure: as §1

ABL1 G250E = molecular target: T19, ABL1 G250E (Homo sapiens, UniProt P00519, G250E); test: ProfilerPro Kinase Selectivity, ABL1 G250E; settings: tested at 10 uM, read-out: percent inhibition of the kinase activity
T19 construct: purchased Caliper LifeSciences
Procedure: as §1

NEK1 = molecular target: T20, NEK1 (Homo sapiens, UniProt Q96PY6); test: ProfilerPro Kinase Selectivity, NEK1; settings: tested at 10 uM, read-out: percent inhibition of the kinase activity
T20 construct: purchased Caliper LifeSciences
Procedure: as §1

BLK = molecular target: T21, BLK (Homo sapiens, UniProt P51451); test: ProfilerPro Kinase Selectivity, BLK; settings: tested at 10 uM, read-out: percent inhibition of the kinase activity
T21 construct: purchased Caliper LifeSciences
Procedure: as §1

MAPKAPK2 = molecular target: T22, MAPKAPK2 (Homo sapiens, UniProt P49137); test: ProfilerPro Kinase Selectivity, MAPKAPK2; settings: tested at 10 uM, read-out: percent inhibition of the kinase activity
T22 construct: purchased Caliper LifeSciences
Procedure: as §1

LCK = molecular target: T23, LCK (Homo sapiens, UniProt P06239); test: ProfilerPro Kinase Selectivity, LCK; settings: tested at 10 uM, read-out: percent inhibition of the kinase activity
T23 construct: purchased Caliper LifeSciences
Procedure: as §1

AXL = molecular target: T24, AXL (Homo sapiens, UniProt P30530); test: ProfilerPro Kinase Selectivity, AXL; settings: tested at 10 uM, read-out: percent inhibition of the kinase activity
T24 construct: purchased Caliper LifeSciences
Procedure: as §1

AURB = molecular target: T25, AURB (Homo sapiens, UniProt Q96GD4); test: ProfilerPro Kinase Selectivity, AURB; settings: tested at 10 uM, read-out: percent inhibition of the kinase activity
T25 construct: purchased Caliper LifeSciences
Procedure: as §1

NUAK1 = molecular target: T26, NUAK1 (Homo sapiens, UniProt O60285); test: ProfilerPro Kinase Selectivity, NUAK1; settings: tested at 10 uM, read-out: percent inhibition of the kinase activity
T26 construct: purchased Caliper LifeSciences
Procedure: as §1

CHK1 = molecular target: T27, CHK1 (Homo sapiens, UniProt O14757); test: ProfilerPro Kinase Selectivity, CHK1; settings: tested at 10 uM, read-out: percent inhibition of the kinase activity
T27 construct: purchased Caliper LifeSciences
Procedure: as §1

MNK1 = molecular target: T28, MNK1 (Homo sapiens, UniProt Q9BUB5); test: ProfilerPro Kinase Selectivity, MNK1; settings: tested at 10 uM, read-out: percent inhibition of the kinase activity
T28 construct: purchased Caliper LifeSciences
Procedure: as §1

EGFR = molecular target: T29, EGFR (Homo sapiens, UniProt P00533); test: ProfilerPro Kinase Selectivity, EGFR; settings: tested at 10 uM, read-out: percent inhibition of the kinase activity
T29 construct: purchased Caliper LifeSciences
Procedure: as §1

T6 sequence (Q16644 whole entry, species assumed): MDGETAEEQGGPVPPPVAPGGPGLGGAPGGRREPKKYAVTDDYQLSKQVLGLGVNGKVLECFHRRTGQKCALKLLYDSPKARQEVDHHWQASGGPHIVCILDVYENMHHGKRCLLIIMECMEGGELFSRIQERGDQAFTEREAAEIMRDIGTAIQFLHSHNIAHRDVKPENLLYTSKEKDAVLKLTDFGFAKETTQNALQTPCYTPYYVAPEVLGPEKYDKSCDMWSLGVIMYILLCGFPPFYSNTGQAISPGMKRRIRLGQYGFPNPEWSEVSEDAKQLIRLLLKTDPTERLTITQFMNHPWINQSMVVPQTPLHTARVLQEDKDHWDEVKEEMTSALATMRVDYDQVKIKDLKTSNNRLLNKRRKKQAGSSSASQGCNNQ
T1 sequence (P11309 whole entry, species assumed): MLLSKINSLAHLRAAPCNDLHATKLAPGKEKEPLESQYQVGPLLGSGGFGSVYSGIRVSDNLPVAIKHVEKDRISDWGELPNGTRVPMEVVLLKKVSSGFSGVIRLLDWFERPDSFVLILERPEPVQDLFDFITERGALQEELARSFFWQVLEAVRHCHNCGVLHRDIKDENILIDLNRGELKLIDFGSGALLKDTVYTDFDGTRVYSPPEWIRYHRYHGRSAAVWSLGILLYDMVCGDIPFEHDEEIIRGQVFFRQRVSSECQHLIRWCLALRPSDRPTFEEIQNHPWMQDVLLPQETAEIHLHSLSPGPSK
T17 sequence (O14965 whole entry, species assumed): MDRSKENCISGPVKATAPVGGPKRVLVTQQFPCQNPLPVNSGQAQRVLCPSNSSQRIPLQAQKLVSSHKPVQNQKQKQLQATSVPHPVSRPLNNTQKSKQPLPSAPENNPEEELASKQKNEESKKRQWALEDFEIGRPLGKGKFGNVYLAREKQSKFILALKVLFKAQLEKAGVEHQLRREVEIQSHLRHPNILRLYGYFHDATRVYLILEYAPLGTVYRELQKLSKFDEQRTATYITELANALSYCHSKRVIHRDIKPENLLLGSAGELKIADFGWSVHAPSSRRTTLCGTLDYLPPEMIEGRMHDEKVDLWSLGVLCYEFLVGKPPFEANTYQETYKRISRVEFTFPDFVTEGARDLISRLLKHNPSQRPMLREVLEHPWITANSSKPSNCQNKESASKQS
T26 sequence (O60285 whole entry, species assumed): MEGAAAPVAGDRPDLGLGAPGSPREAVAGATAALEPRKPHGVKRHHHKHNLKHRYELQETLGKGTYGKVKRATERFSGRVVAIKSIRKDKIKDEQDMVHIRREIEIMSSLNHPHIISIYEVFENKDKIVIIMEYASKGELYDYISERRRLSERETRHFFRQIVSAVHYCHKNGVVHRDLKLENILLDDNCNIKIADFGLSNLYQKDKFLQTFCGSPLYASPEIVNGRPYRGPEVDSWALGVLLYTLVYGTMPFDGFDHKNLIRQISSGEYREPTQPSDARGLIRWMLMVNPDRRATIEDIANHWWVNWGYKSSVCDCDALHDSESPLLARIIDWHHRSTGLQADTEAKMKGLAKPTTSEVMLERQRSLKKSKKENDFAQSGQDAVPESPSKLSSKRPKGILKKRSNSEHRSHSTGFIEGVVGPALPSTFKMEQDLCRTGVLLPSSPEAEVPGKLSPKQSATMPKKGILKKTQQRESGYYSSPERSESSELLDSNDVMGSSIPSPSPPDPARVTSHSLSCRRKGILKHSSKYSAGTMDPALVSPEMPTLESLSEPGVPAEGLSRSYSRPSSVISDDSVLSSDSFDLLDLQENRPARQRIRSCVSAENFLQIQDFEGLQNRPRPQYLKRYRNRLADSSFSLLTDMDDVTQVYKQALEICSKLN
T28 sequence (Q9BUB5 whole entry, species assumed): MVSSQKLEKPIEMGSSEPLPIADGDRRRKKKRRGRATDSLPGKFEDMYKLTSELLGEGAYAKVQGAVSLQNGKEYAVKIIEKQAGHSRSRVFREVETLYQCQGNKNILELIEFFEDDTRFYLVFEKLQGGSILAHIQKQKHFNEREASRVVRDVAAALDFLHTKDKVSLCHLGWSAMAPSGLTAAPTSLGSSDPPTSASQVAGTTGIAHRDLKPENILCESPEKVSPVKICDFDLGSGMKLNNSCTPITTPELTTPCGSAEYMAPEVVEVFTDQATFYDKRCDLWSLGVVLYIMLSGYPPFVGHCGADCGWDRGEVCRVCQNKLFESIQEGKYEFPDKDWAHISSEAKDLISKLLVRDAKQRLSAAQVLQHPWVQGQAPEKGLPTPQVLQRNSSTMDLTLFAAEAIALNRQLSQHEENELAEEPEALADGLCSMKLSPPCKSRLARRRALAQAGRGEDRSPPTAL
T29 sequence (P00533 25-1210, species assumed): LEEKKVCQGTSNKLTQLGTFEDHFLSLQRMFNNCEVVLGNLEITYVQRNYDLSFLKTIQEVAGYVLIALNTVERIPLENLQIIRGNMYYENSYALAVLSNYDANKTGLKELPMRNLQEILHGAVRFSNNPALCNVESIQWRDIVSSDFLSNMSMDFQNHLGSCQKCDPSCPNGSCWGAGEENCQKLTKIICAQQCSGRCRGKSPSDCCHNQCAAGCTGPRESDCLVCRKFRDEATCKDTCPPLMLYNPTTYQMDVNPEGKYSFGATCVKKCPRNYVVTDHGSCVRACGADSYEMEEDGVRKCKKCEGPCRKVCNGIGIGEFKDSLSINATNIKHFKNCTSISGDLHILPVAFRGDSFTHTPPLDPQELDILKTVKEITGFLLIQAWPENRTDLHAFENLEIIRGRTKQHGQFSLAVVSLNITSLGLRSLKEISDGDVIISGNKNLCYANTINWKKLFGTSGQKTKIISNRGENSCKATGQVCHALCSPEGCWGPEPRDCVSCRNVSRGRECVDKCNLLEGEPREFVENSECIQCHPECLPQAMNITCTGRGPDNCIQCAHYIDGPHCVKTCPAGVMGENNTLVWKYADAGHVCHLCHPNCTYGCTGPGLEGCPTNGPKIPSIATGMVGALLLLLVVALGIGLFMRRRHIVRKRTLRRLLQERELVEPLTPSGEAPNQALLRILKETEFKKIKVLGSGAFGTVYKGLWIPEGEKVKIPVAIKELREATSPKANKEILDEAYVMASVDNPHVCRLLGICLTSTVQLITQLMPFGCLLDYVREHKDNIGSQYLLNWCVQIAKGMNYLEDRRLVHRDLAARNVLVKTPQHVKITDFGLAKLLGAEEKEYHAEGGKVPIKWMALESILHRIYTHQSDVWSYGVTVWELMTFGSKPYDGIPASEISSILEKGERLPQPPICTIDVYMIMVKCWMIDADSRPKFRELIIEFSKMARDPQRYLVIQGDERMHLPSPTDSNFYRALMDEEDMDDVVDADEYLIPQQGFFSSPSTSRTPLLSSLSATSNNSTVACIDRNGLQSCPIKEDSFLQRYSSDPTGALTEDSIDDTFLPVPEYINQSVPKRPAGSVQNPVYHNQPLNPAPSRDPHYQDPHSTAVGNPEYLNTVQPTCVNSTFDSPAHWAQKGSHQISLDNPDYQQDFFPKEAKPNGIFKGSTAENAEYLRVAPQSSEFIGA
T2 sequence (Q96L34 whole entry, species assumed): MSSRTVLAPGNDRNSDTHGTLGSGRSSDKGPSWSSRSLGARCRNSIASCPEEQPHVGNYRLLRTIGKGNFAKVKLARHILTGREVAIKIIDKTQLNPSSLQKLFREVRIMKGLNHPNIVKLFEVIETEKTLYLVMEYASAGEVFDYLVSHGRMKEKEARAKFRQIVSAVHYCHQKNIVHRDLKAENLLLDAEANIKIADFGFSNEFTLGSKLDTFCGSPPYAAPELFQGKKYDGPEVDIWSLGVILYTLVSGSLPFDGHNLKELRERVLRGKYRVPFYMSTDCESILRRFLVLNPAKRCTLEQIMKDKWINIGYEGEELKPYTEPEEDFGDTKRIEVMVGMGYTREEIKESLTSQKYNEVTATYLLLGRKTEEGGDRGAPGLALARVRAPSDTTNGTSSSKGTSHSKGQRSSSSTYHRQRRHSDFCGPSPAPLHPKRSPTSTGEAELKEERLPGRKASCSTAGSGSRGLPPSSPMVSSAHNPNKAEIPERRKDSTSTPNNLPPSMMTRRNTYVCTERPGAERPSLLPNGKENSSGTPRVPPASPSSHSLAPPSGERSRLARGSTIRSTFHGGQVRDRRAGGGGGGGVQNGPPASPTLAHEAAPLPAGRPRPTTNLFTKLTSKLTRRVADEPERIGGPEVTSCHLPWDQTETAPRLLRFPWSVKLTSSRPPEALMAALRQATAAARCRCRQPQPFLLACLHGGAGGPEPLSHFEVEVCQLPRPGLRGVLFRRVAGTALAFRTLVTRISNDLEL
T24 sequence (P30530 26-894, species assumed): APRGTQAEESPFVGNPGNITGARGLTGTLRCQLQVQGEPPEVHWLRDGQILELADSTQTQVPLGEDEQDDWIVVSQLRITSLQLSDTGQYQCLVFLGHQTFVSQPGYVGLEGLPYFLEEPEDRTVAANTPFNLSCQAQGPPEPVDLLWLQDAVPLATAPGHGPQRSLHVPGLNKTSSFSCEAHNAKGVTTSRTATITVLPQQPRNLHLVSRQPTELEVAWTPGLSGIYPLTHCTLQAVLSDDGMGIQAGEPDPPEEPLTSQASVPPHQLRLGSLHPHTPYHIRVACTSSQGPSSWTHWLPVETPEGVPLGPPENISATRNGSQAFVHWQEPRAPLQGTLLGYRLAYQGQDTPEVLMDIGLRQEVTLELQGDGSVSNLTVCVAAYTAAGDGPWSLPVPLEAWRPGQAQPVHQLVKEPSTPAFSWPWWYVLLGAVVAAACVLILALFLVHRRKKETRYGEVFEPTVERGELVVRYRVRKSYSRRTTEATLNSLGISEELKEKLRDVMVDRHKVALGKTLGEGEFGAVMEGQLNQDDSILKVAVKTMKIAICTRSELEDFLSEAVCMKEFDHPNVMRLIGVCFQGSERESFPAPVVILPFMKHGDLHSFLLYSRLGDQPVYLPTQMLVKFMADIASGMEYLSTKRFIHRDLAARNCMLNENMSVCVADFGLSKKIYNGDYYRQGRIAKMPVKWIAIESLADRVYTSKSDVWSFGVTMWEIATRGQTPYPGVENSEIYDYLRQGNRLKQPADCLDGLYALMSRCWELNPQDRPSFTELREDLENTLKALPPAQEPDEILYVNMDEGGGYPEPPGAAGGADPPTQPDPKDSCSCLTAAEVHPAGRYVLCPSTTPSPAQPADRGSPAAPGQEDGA

SMILES | inhibition at 10 µM (PIM1) | inhibition at 10 µM (MARK4) | inhibition at 10 µM (GSK3A) | inhibition at 10 µM (CDK5/P25) | inhibition at 10 µM (RSK3) | inhibition at 10 µM (MAPKAPK3) | inhibition at 10 µM (FES) | inhibition at 10 µM (CSNK1A1) | IC50 [1] | inhibition at 10 µM (TSSK2) | inhibition at 10 µM (PRKCB1) | inhibition at 10 µM (P38A) | inhibition at 10 µM (DDR2) | inhibition at 10 µM (MARK2) | inhibition at 10 µM (TXK) | inhibition at 10 µM (PRKCZ) | inhibition at 10 µM (AURA) | inhibition at 10 µM (AKT1) | inhibition at 10 µM (ABL1 G250E) | inhibition at 10 µM (NEK1) | further results
CSc1sc(-c2cc[nH]n2)c2c1C(=O)CCC2 [Example 1, 3-(Methylsulfanyl)-1-(1H-pyrazol-3-yl)-6,7-dihydro-2-benzothiophen-4(5H)-one] | 26.3% | -9.4% | 8.5% | 9.5% | 9.4% | 0.1% | -2.8% | 12.4% | 190 nM | 20.1% | -5.1% | -2.3% | 0.8% | 0.3% | 22.7% | 0.4% | 44% | -3.2% | 5% | 9.1% | inhibition at 10 µM (BLK): 6.6%; inhibition at 10 µM (MAPKAPK2): 4.1%; inhibition at 10 µM (LCK): 4%; inhibition at 10 µM (AXL): 13.5%; inhibition at 10 µM (AURB): 57.7%; inhibition at 10 µM (NUAK1): 44.2%; inhibition at 10 µM (CHK1): 0%; inhibition at 10 µM (MNK1): 1.7%; inhibition at 10 µM (EGFR): -3.1%
CC1(C)CC(=O)c2c(SC3CCCC3)sc(-c3cc[nH]n3)c2C1 [Example 7, 3-(Cyclopentylsulfanyl)-6,6-dimethyl-1-(1H-pyrazol-3-yl)-6,7-dihydro-2-benzothiophen-4(5H)-one] | -16.3% | 11.6% | -8.3% | -11.7% | 2% | -1% | -3.1% | 2% | 93 nM | -2.3% | -3.9% | 0.6% | -3.9% | 9.2% | 8.4% | 0.5% | 11% | 0.1% | 6.4% | 1.4% | inhibition at 10 µM (BLK): 3.2%; inhibition at 10 µM (MAPKAPK2): 2%; inhibition at 10 µM (LCK): 23.3%; inhibition at 10 µM (AXL): 12.3%; inhibition at 10 µM (AURB): -3.1%; inhibition at 10 µM (NUAK1): -4.2%; inhibition at 10 µM (CHK1): 8%; inhibition at 10 µM (MNK1): -5.6%; inhibition at 10 µM (EGFR): 2.2%
